These results are taken from patent US9040545B2, “Heterocyclyl pyrazolopyrimidine analogues as selective JAK inhibitors” (Cellzome Limited, priority 2010, dated 2015).

The structures appear in SMILES notation.

In assay [1] the target is T1, JAK2 (Homo sapiens, UniProt O60674).
T1 construct: endogenous in cells; host or cells: mixed Molt4/Ramos lysate (1:2)
Description: Kinobeads assay, JAK2. The note with it: mixed Molt4/Ramos lysate, read-out: Inhibition values (IC50) JAK2. It is filed as binding. In outline:
(§1)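 IC50 values come from dose-response curves of JAK2/JAK3 captured on immobilized aminopyrido-pyrimidine beads, quantified by antibody dot blot with infrared read-out. Compounds (1:3 series, 9 steps, from 5 mM DMSO stock) competed for 3 h in the cold with mixed Molt4/Ramos lysate (1:2, 10 mg/mL protein).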

Assay [2] deals with T2, JAK3 (Homo sapiens, UniProt P52333).
T2 construct: endogenous in cells; host or cells: mixed Molt4/Ramos lysate (1:2)
T2 sequence (P52333 1-1124): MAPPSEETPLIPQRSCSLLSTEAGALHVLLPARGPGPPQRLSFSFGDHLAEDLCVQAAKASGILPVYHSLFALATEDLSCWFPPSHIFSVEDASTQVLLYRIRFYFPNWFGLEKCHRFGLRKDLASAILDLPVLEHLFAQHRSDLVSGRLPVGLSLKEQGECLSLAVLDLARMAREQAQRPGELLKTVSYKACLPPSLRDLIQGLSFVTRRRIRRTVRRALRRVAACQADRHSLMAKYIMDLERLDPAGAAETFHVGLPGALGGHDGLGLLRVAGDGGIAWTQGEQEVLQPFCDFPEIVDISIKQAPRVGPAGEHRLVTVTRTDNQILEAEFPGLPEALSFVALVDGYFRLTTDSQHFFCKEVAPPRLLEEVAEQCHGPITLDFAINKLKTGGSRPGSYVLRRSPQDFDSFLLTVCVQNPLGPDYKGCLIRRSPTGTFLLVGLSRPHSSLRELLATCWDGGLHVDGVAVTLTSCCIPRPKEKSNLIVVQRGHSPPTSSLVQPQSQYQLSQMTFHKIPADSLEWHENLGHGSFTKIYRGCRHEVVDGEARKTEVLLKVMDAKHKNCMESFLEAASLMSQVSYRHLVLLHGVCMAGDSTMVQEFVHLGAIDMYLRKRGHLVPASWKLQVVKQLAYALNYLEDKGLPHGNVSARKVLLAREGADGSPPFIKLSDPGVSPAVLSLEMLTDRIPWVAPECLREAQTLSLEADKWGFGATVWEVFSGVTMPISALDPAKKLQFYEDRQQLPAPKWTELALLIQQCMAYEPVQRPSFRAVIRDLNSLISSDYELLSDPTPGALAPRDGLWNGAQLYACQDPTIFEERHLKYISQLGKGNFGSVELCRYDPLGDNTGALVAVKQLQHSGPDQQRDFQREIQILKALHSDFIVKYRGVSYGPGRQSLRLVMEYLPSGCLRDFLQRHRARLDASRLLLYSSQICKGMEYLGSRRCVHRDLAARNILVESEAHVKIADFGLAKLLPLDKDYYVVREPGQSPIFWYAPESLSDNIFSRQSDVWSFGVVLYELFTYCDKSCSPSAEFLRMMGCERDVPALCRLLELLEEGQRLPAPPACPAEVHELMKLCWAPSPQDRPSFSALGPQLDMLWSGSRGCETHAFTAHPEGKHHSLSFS
Description: Kinobeads assay, JAK3. The assay is classed as binding. The note with it: mixed Molt4/Ramos lysate, read-out: Inhibition values (IC50) JAK3. In outline:
as §1

T1 sequence (O60674 whole entry): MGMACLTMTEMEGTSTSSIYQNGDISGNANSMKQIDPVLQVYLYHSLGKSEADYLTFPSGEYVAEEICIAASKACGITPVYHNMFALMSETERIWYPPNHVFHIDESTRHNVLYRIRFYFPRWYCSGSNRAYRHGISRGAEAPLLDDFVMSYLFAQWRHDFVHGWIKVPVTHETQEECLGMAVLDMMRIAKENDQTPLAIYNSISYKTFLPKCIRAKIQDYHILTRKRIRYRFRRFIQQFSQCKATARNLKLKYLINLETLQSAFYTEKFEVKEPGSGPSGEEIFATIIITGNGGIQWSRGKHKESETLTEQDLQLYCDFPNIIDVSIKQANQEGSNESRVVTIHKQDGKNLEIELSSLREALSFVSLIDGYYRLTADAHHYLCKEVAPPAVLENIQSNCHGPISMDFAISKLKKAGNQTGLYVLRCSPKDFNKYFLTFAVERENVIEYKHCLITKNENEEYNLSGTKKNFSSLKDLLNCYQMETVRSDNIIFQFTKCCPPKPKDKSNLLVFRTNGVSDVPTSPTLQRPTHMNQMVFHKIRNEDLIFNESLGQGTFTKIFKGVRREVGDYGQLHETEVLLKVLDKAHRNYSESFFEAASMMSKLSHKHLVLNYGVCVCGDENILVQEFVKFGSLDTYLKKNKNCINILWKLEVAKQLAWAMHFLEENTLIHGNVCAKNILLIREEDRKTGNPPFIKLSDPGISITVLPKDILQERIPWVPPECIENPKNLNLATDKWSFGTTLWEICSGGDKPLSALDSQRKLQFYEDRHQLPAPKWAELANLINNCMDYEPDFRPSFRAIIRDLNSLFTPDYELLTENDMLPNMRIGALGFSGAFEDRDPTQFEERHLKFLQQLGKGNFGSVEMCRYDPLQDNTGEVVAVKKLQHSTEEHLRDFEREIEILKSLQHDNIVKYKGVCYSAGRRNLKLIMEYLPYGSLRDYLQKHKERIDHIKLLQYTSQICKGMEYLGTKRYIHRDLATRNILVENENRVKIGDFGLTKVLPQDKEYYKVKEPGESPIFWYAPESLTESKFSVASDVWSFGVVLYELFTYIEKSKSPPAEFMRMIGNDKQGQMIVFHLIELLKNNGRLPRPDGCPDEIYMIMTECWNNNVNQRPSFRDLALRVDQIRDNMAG

By IC50 is commonly meant the concentration that gives 50% inhibition. For `CNC(=O)Cn1cc(Nc2ncc3cnn(Cc4cc(F)cc(N5CCOCC5=O)c4)c3n2)cn1` [Example 68, 2-(4-((1-(3-Fluoro-5-(3-oxomorpholino)benzyl)-1H-pyrazolo[3,4-d]pyrimidin-6-yl)amino)-1H-pyrazol-1-yl)-N-methylacetamide], the half-inhibitory concentration (IC50) is 1000 to 10000 nM in assay [1] and under 100 nM in assay [2].
In the same order, the values of `OCCn1cc(Nc2ncc3cnn(Cc4cc(N5CCNCC5)cc(F)c4F)c3n2)cn1` [Example 78, 2-(4-((1-(2,3-Difluoro-5-(piperazin-1-yl)benzyl)-1H-pyrazolo[3,4-d]pyrimidin-6-yl)amino)-1H-pyrazol-1-yl)ethanol] are 1000 to 10000 nM and under 100 nM.
In the same order, the values of `COC1CCN(c2cccc(Cn3ncc4cnc(Nc5cnn(C)c5)nc43)c2)CC1` [Example 77, 1-(3-(4-Methoxypiperidin-1-yl)benzyl)-N-(1-methyl-1H-pyrazol-4-yl)-1H-pyrazolo[3,4-d]pyrimidin-6-amine] are at least 10000 nM and under 100 nM.
In the same order, the values of `Cn1cc(Nc2ncc3cnn(Cc4cccc(N5CCNCC5=O)c4F)c3n2)cn1` [Example 54, 1-(2-Fluoro-3-((6-((1-methyl-1H-pyrazol-4-yl)amino)-1H-pyrazolo[3,4-d]pyrimidin-1-yl)methyl)phenyl)piperazin-2-one] are 1000 to 10000 nM and under 100 nM.
Take `OCCn1cc(Nc2ncc3cnn(Cc4c(F)ccc(N5CCOCC5)c4F)c3n2)cn1` [Example 82, 2-(4-((1-(2,6-Difluoro-3-morpholinobenzyl)-1H-pyrazolo[3,4-d]pyrimidin-6-yl)amino)-1H-pyrazol-1-yl)ethanol]: the 50% inhibitory concentration (IC50) in assay [1] is at least 10000 nM; in assay [2] it was under 100 nM.
In the same order, the values of `CN(C)CCCn1cc(Nc2ncc3cnn(Cc4cccc(N5CCOCC5=O)c4F)c3n2)cn1` [Example 50, 4-(3-((6-((1-(3-(Dimethylamino)propyl)-1H-pyrazol-4-yl)amino)-1H-pyrazolo[3,4-d]pyrimidin-1-yl)methyl)-2-fluorophenyl)morpholin-3-one] are 1000 to 10000 nM and under 100 nM.
In the same order, the values of `OCCn1cc(Nc2ncc3cnn(Cc4cc(N5CCOCC5)cc(F)c4F)c3n2)cn1` [Example 56, 2-(4-((1-(2,3-Difluoro-5-morpholinobenzyl)-1H-pyrazolo[3,4-d]pyrimidin-6-yl)amino)-1H-pyrazol-1-yl)ethanol] are at least 10000 nM and under 100 nM.
With `Cn1cc(Nc2ncc3cnn(Cc4cccc(N5CCNCC5)c4F)c3n2)cn1` [Example 67, 1-(2-Fluoro-3-(piperazin-1-yl)benzyl)-N-(1-methyl-1H-pyrazol-4-yl)-1H-pyrazolo[3,4-d]pyrimidin-6-amine], the IC50 was 1000 to 10000 nM in assay [1] and under 100 nM in assay [2].
In the same order, the values of `OCCn1cc(Nc2ncc3cnn(Cc4c(F)c(F)cc(N5CCOCC5)c4F)c3n2)cn1` [Example 45, 2-(4-((1-(2,3,6-Trifluoro-5-morpholinobenzyl)-1H-pyrazolo[3,4-d]pyrimidin-6-yl)amino)-1H-pyrazol-1-yl)ethanol] are 1000 to 10000 nM and under 100 nM.
In the same order, the values of `O=C1COCCN1c1cc(F)cc(Cn2ncc3cnc(Nc4cn[nH]c4)nc32)c1` [Example 84, 4-(3-((6-((1H-Pyrazol-4-yl)amino)-1H-pyrazolo[3,4-d]pyrimidin-1-yl)methyl)-5-fluorophenyl)morpholin-3-one] are 100 to 1000 nM and under 100 nM.
In the same order, the values of `CN(C)CCCn1cc(Nc2ncc3cnn(Cc4c(F)c(F)cc(N5CCOCC5)c4F)c3n2)cn1` [Example 42, N-(1-(3-(Dimethylamino)propyl)-1H-pyrazol-4-yl)-1-(2,3,6-trifluoro-5-morpholinobenzyl)-1H-pyrazolo[3,4-d]pyrimidin-6-amine] are 1000 to 10000 nM and under 100 nM.
As to `O=C1COCCN1c1cccc(Cn2ncc3cnc(Nc4cnn(CCO)c4)nc32)c1F` [Example 46, 4-(2-Fluoro-3-((6-((1-(2-hydroxyethyl)-1H-pyrazol-4-yl)amino)-1H-pyrazolo[3,4-d]pyrimidin-1-yl)methyl)phenyl)morpholin-3-one], the IC50 in assay [1] was 1000 to 10000 nM; in assay [2], under 100 nM.
For `c1cc(Cn2ncc3cnc(Nc4cnn(CC5CCNC5)c4)nc32)cc(N2CCOCC2)c1` (stereo not shown) [Example 60, 1-(3-Morpholinobenzyl)-N-(1-(pyrrolidin-3-ylmethyl)-1H-pyrazol-4-yl)-1H-pyrazolo[3,4-d]pyrimidin-6-amine], the 50% inhibitory concentration (IC50) in assay [1] was 1000 to 10000 nM; in assay [2], under 100 nM.
In the same order, the values of `Cn1cc(Nc2ncc3cnn(Cc4cc(F)cc(N5CCNCC5=O)c4)c3n2)cn1` [Example 64, 1-(3-Fluoro-5-((6-((1-methyl-1H-pyrazol-4-yl)amino)-1H-pyrazolo[3,4-d]pyrimidin-1-yl)methyl)phenyl)piperazin-2-one] are 1000 to 10000 nM and under 100 nM.
In the same order, the values of `CN(C)CCCn1cc(Nc2ncc3cnn(Cc4cccc(N5CCOCC5)c4F)c3n2)cn1` [Example 43, N-(1-(3-(Dimethylamino)propyl)-1H-pyrazol-4-yl)-1-(2-fluoro-3-morpholinobenzyl)-1H-pyrazolo[3,4-d]pyrimidin-6-amine] are 1000 to 10000 nM and under 100 nM.
In the same order, the values of `Cn1cc(Nc2ncc3cnn(Cc4cc(F)cc(N5CCOCC5)c4)c3n2)cn1` [Example 49, 1-(3-Fluoro-5-morpholinobenzyl)-N-(1-methyl-1H-pyrazol-4-yl)-1H-pyrazolo[3,4-d]pyrimidin-6-amine] are 1000 to 10000 nM and under 100 nM.
With `Cn1cc(Nc2ncc3cnn(Cc4c(F)ccc(N5CCOCC5=O)c4F)c3n2)cn1` [Example 69, 4-(2,4-Difluoro-3-((6-((1-methyl-1H-pyrazol-4-yl)amino)-1H-pyrazolo[3,4-d]pyrimidin-1-yl)methyl)phenyl)morpholin-3-one], the IC50 was 1000 to 10000 nM in assay [1] and under 100 nM in assay [2].
In the same order, the values of `O=C(c1cccc(Cn2ncc3cnc(Nc4cnn(CCO)c4)nc32)c1F)N1CCOCC1` [Example 85, (2-Fluoro-3-((6-((1-(2-hydroxyethyl)-1H-pyrazol-4-yl)amino)-1H-pyrazolo[3,4-d]pyrimidin-1-yl)methyl)phenyl)(morpholino)methanone] are 1000 to 10000 nM and under 100 nM.
In the same order, the values of `OCCn1cc(Nc2ncc3cnn(Cc4cccc(N5CCNCC5)c4F)c3n2)cn1` [Example 83, 2-(4-((1-(2-Fluoro-3-(piperazin-1-yl)benzyl)-1H-pyrazolo[3,4-d]pyrimidin-6-yl)amino)-1H-pyrazol-1-yl)ethanol] are 1000 to 10000 nM and under 100 nM.
In the same order, the values of `Cn1cc(Nc2ncc3cnn(Cc4cc(F)cc(N5CCOCC5=O)c4)c3n2)cn1` [Example 52, 4-(3-Fluoro-5-((6-((1-methyl-1H-pyrazol-4-yl)amino)-1H-pyrazolo[3,4-d]pyrimidin-1-yl)methyl)phenyl)morpholin-3-one] are 1000 to 10000 nM and under 100 nM.
As to `O=C1COCCN1c1cc(F)cc(Cn2ncc3cnc(Nc4cnn(CCO)c4)nc32)c1F` [Example 74, 4-(2,5-Difluoro-3-((6-((1-(2-hydroxyethyl)-1H-pyrazol-4-yl)amino)-1H-pyrazolo[3,4-d]pyrimidin-1-yl)methyl)phenyl)morpholin-3-one], the values for the half-maximal inhibitory concentration (IC50) in assay [1] and in assay [2] were 100 to 1000 nM and under 100 nM, respectively.
In the same order, the values of `Cn1cc(Nc2ncc3cnn(Cc4cc(F)cc(C(=O)N5CCNCC5)c4)c3n2)cn1` [Example 80, (3-Fluoro-5-((6-((1-methyl-1H-pyrazol-4-yl)amino)-1H-pyrazolo[3,4-d]pyrimidin-1-yl)methyl)phenyl)(piperazin-1-yl)methanone] are 1000 to 10000 nM and under 100 nM.
In the same order, the values of `Cn1cc(Nc2ncc3cnn(Cc4c(F)c(F)cc(N5CCOCC5=O)c4F)c3n2)cn1` [Example 61, 4-(2,4,5-Trifluoro-3-((6-((1-methyl-1H-pyrazol-4-yl)amino)-1H-pyrazolo[3,4-d]pyrimidin-1-yl)methyl)phenyl)morpholin-3-one] are 1000 to 10000 nM and under 100 nM.
